Data: the supplement of paper PMC10307832

Columns and labels:
Experiment in all cases: relative viability (nuclei count vs DMSO), 5 days (fraction); higher = more cells survive
AZ505 + Navitoclax = compound: C1CCC(CC1)N(CCNCCC2=C3C(=C(C=C2)O)NC(=O)CO3)C(=O)CCNCCC4=CC(=C(C=C4)Cl)Cl [AZ505] + CC1(C)CCC(c2ccc(Cl)cc2)=C(CN2CCN(c3ccc(C(=O)NS(=O)(=O)c4ccc(N[C@H](CCN5CCOCC5)CSc5ccccc5)c(S(=O)(=O)C(F)(F)F)c4)cc3)CC2)C1 [Navitoclax] (partner 0.5 µM)
How it was run: (§1)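 Relative viability is defined as nuclei in treated wells over nuclei in vehicle wells. Duplicate plates were run and medians reported. Lung cancer cell lines in 1536-well plates were dosed by pin tool one day after seeding, with one drug or with a fixed anchor-drug dose plus five library-drug doses (not always all listed) in √10 steps, and nuclei were counted after 5 days.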

AZ505 + Lapatinib = compound: C1CCC(CC1)N(CCNCCC2=C3C(=C(C=C2)O)NC(=O)CO3)C(=O)CCNCCC4=CC(=C(C=C4)Cl)Cl [AZ505] + CS(=O)(=O)CCNCc1ccc(-c2ccc3ncnc(Nc4ccc(OCc5cccc(F)c5)c(Cl)c4)c3c2)o1 [Lapatinib] (partner 2 µM)
How it was run: as §1

Dactolisib + Luminespib = compound: Cn1c(=O)n(-c2ccc(C(C)(C)C#N)cc2)c2c3cc(-c4cnc5ccccc5c4)ccc3ncc21 [Dactolisib] + CCNC(=O)c1noc(-c2cc(C(C)C)c(O)cc2O)c1-c1ccc(CN2CCOCC2)cc1 [Luminespib] (partner 0.01 µM)
How it was run: as §1

Dactolisib + Dasatinib = compound: Cn1c(=O)n(-c2ccc(C(C)(C)C#N)cc2)c2c3cc(-c4cnc5ccccc5c4)ccc3ncc21 [Dactolisib] + Cc1nc(Nc2ncc(C(=O)Nc3c(C)cccc3Cl)s2)cc(N2CCN(CCO)CC2)n1 [Dasatinib] (partner 0.075 µM)
How it was run: as §1

Cell Line | relative viability (AZ505 + Navitoclax; first compound 0.08 µM) | relative viability (AZ505 + Navitoclax; first compound 0.253 µM) | relative viability (AZ505 + Navitoclax; first compound 0.8 µM) | relative viability (AZ505 + Navitoclax; first compound 2.53 µM) | relative viability (AZ505 + Navitoclax; first compound 8 µM) | relative viability (AZ505 + Lapatinib; first compound 0.08 µM) | relative viability (AZ505 + Lapatinib; first compound 0.253 µM) | relative viability (AZ505 + Lapatinib; first compound 0.8 µM) | relative viability (AZ505 + Lapatinib; first compound 2.53 µM) | relative viability (AZ505 + Lapatinib; first compound 8 µM) | relative viability (Dactolisib + Luminespib; first compound 0.002 µM) | relative viability (Dactolisib + Luminespib; first compound 0.006325 µM) | relative viability (Dactolisib + Luminespib; first compound 0.02 µM) | relative viability (Dactolisib + Luminespib; first compound 0.06325 µM) | relative viability (Dactolisib + Luminespib; first compound 0.2 µM) | relative viability (Dactolisib + Dasatinib; first compound 0.002 µM) | relative viability (Dactolisib + Dasatinib; first compound 0.006325 µM) | relative viability (Dactolisib + Dasatinib; first compound 0.02 µM) | relative viability (Dactolisib + Dasatinib; first compound 0.06325 µM) | relative viability (Dactolisib + Dasatinib; first compound 0.2 µM)
NCI-H2085 | 1.08 | 1.12 | 1.04 | 1.06 | 1.2 | 0.67 | 0.7 | 0.668 | 0.789 | 0.83 | 0.387 | 0.388 | 0.374 | 0.208 | 0.239 | 0.179 | 0.249 | 0.229 | 0.169 | 0.209
NCI-H1734 | 0.802 | 0.836 | 0.755 | 0.736 | 0.774 | 0.991 | 1 | 1.02 | 1.01 | 1 | 0.151 | 0.211 | 0.196 | 0.184 | 0.169 | 0.499 | 0.362 | 0.407 | 0.2 | 0.162
NCI-H2126 | 0.818 | 0.88 | 0.83 | 0.857 | 0.863 | 0.758 | 0.78 | 0.767 | 0.639 | 0.701 | 0.803 | 0.868 | 0.809 | 0.334 | 0.296 | 0.599 | 0.589 | 0.504 | 0.385 | 0.279
EMC-BAC-2 | 1.12 | 1.26 | 1.15 | 1.14 | 1.27 | 0.819 | 0.905 | 0.814 | 0.837 | 0.904 | 1.15 | 1.14 | 1.1 | 0.875 | 0.556 | 0.337 | 0.325 | 0.342 | 0.209 | 0.18
